Columns and labels:
[1] = Stability in the presence of moisture; assay type: physicochemical; conditions: compound or a pharmaceutically acceptable salt thereof
Water solubility = assay type: physicochemical; conditions: compound or a pharmaceutically acceptable salt thereof

Structure (SMILES): CCN(CC)CCN1CCc2[nH]c(/C=C3\C(=O)Nc4ccc(F)cc43)c(C)c2C1=O.O=C(O)C[C@H](O)C(=O)O [compound of formula (I), 5-(2-diethylamino-ethyl)-2-(5-fluoro-2-oxo-1,2-dihydro-indol-3-ylidene-methyl)-3-methyl-1,5,6,7-tetrahydro-pyrrolo[3,2-c]pyridin-4-one]
- stability in the presence of moisture [1]: unstable
- water solubility (Water solubility): poor

Reference: patent US10973807B2, “Pharmaceutical composition comprising pyrrolo-fused six-membered heterocyclic compound” (Jiangsu Hengrui Medicine Co., Ltd., priority 2016, dated 2021)
